Laboratory results from ChEMBL document CHEMBL1201862, “PubChem BioAssay data set” (2004).
One block for each molecule: values may come before it. Calls of active or inactive are those of the source.

Key:
[1] = inhibitors of intracellular T. cruzi replication, confirmation, NIH3T3 host cells, beta-gal luminescence (AID 2044); assay type: functional, cell-based;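 also: intracellular parasites grown in NIH/3T3 mouse fibroblasts as host cells; luminescent beta-galactosidase reporter signal from transgenic T. cruzi replicating inside host cells; inhibitors lower the luminescence signal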
[2] = inhibitors of HIV Env-driven cell fusion, dose response, cherry-pick (AID 652057); assay type: functional, cell-based
[3] = ZM109 Env clade C HIV-1 fusion inhibitors, dose response, HeLa effector, CEM target cells, luciferase, cherry-pick (AID 652058); assay type: functional, cell-based
Estrogen receptor = biological target: T1, Estrogen receptor (Homo sapiens, UniProt P03372);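 also: potency for inhibiting coactivator peptide recruitment to the receptor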
T1 sequence (P03372 whole entry): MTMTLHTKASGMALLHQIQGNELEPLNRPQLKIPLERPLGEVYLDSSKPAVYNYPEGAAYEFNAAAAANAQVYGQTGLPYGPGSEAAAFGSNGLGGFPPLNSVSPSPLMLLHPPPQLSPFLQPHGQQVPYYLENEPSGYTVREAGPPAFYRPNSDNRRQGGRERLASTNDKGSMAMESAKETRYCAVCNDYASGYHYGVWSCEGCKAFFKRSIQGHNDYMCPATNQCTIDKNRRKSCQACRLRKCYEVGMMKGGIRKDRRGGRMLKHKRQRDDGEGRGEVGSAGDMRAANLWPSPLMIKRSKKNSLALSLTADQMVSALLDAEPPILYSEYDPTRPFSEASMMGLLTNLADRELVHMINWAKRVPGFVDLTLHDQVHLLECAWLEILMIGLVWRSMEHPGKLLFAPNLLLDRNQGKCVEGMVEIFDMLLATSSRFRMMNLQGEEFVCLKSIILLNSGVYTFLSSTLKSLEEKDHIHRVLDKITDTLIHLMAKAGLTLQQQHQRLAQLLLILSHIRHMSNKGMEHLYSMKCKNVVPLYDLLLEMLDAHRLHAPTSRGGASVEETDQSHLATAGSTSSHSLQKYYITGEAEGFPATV

[4] = CEM21 cell cytotoxicity, dose response, cytotoxicity control, plate reader, dry powder (AID 687026); assay type: functional, cell-based
[5] = cytotoxicity toward NIH3T3 fibroblasts, dose response, counter-screen, cell-based, ATP luminescence, mouse fibroblasts (AID 2010); assay type: functional;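 also: cells exposed to compound for about 90 hours before reading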
[6] = biological target: NAD-dependent protein deacylase sirtuin-5, mitochondrial (Homo sapiens, UniProt Q9NXA8); test: SIRT5 desuccinylase inhibitors, dose response, biochemical, fluorescence imaging, cherry-pick, set 5 (AID 720591);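 also: desuccinylation of succinyl peptide AMC substrate read as fluorescence after trypsin release; potency of inhibitors that lower fluorescence and may act on trypsin instead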
Sequence of NAD-dependent protein deacylase sirtuin-5, mitochondrial (Q9NXA8 whole entry): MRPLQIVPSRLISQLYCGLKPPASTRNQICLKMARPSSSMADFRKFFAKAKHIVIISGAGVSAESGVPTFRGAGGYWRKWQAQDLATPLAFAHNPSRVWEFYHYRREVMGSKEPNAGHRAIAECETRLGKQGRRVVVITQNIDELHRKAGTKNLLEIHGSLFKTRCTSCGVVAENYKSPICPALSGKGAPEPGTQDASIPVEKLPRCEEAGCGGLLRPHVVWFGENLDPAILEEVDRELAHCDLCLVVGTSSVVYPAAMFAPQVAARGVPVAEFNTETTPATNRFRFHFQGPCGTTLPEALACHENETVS

[7] = T. cruzi growth inhibition in host cells, dose response, cell-based, plate reader, dry powder, set 2 (AID 652275); assay type: functional
Protein Wnt-3a = Protein Wnt-3a (Mus musculus, UniProt P27467); test: SAR analysis of small molecule antagonists of Gli-SUFU in a Wnt3a luminescent reporter assay.; assay type: functional
Sequence of Protein Wnt-3a (P27467 whole entry): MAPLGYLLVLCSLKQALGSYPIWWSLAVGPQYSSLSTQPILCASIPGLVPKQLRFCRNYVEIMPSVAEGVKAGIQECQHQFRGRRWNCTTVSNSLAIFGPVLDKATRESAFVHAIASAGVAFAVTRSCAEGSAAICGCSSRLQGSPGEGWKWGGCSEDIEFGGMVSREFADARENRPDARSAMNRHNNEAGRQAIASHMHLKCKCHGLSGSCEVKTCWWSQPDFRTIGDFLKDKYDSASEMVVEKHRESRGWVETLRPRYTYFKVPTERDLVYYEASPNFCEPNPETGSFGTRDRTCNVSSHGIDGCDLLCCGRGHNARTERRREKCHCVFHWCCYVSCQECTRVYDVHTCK

[8] = Late stage assay provider results from the probe development effort to identify selective inhibitors of heat shock protein 90 (HSP90): Absorbance-based cell proliferation assay in SKBR3 cells.; assay type: functional; conditions: SK-BR-3
[9] = Late stage assay provider results from the probe development effort to identify selective inhibitors of heat shock protein 90 (HSP90): Absorbance-based cell proliferation assay in MCF7 cells.; assay type: functional
[10] = inhibitors of CMV-promoter luciferase reporter, dose response, counter-screen for Pax8 inhibitor project, cell-based, HEK293, luminescence, dry powder (AID 743020); assay type: functional
[11] = HEp-2 cell cytotoxicity, dose response, cytotoxicity control for RSV inhibitor project, HTS (AID 2410); assay type: functional; conditions: human respiratory syncytial virus
HEK293 = test: HEK293T cell cytotoxicity, dose response, cytotoxicity control, ATP luminescence, cherry-pick samples (AID 687005); assay type: functional, cell-based; conditions: Homo sapiens;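 also: cells exposed to compound for 48 hours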
[12] = HEK293 Cytotoxicity Assay Measured in Cell-Based System Using Plate Reader - 7071-01_Inhibitor_Dose_CherryPick_Activity_Set2.; assay type: functional
[13] = HeLa cell cytotoxicity, dose response, cytotoxicity control, 24 h, plate reader, dry powder (AID 686928); assay type: functional, cell-based
[14] = biological target: Potassium channel subfamily K member 9 (Homo sapiens, UniProt Q9NPC2); test: TASK3 (KCNK9) channel inhibitors, thallium flux, SAR follow-up, selectivity assay for TASK1 inhibitor project, cell-based, FluxOR thallium flux, concentration-response (AID 652211); assay type: functional;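 also: potency is for inhibitors of the channel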
Sequence of Potassium channel subfamily K member 9 (Q9NPC2 whole entry): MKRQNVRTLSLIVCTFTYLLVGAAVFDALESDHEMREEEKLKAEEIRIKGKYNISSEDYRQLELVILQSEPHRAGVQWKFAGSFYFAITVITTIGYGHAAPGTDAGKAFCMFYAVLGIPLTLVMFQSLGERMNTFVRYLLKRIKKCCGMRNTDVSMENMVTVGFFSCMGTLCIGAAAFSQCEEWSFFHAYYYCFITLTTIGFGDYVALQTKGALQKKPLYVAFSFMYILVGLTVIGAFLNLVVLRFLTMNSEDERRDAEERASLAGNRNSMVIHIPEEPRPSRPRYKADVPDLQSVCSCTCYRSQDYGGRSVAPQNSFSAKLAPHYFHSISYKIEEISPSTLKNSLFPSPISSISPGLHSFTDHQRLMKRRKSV

[15] = biological target: Potassium channel subfamily K member 3 (Homo sapiens, UniProt O14649); test: TASK1 (KCNK3) potassium channel inhibitors, SAR follow-up, CHO cells, FluxOR thallium flux (AID 652212); assay type: functional
Sequence of Potassium channel subfamily K member 3 (O14649 whole entry): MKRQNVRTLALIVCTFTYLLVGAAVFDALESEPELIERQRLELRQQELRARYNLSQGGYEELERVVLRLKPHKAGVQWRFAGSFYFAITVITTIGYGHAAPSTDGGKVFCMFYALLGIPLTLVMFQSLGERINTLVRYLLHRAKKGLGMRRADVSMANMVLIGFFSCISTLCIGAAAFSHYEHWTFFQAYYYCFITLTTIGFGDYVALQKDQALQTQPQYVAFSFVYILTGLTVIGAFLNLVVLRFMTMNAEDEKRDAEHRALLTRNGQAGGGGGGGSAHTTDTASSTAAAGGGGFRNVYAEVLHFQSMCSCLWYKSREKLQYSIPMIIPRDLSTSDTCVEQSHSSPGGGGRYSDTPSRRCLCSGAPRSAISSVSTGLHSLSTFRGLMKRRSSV

Compound: COc1ccc(-c2nn(C)c(=O)c3ccccc23)cc1NC(=O)Cn1nc(C)c2ccccc2c1=O
EC50 [1]: 1.46 µM (active) | AC50 [2]: 4.07 µM (active) | AC50 [3]: 6.21 µM (active) | IC50 (Estrogen receptor): > 50 µM (not active) | AC50 [4]: > 70 µM (inactive) | EC50 [5]: > 60 µM (not active)

AC50 [6]: 26.5 µM (active)
Compound: Nc1nc(CSc2ccc(Cl)cc2)nc(N2CCCCC2)n1

Compound: CC(C)N1C[C@@H](CN(C)CCc2ccc(Cl)cc2)Oc2c(NC(=O)c3ccncc3)cccc2C1=O
AC50 [7]: 0.000332 µM (active)

IC50 (Protein Wnt-3a): > 21.8 µM (inactive)
Compound: O=C(Nc1cc(N2CCCCC2)ncn1)c1cc2ccccc2s1

Compound: COc1ccc(CCN/C=C2/C=C(Br)C(=O)OC2=O)cc1
IC50 [8]: 5.7 µM (active) | IC50 [9]: 1.8 µM (active)

Compound: Cc1nn(CCO)c2nc(-c3cccs3)cc(C(F)(F)F)c12
AC50 [10]: 26.3 µM (active) | CC50 [11]: > 50 µM (active)

Compound: C[C@H]1CN([C@@H](C)CO)S(=O)(=O)c2ccc(Br)cc2O[C@H]1CN(C)S(=O)(=O)c1ccccc1F
AC50 (HEK293): 37.9 µM (active) | AC50 [12]: 37.9 µM (active)

Compound: Cc1cc2nc3c(cc2cc1F)c(NC(=O)c1ccco1)nn3C
AC50 [13]: > 200 µM (inactive)

IC50 [14]: 0.8 µM (active) | IC50 [15]: 0.114 µM (active)
Compound: CCOc1ccccc1NC(=O)c1cccc(NC(=O)c2ccccc2OC(F)(F)F)c1
